# Earlier results as cited in patent publication US10016482B2, “Insulin independence among patients with diabetes utilizing an optimized hamster REG3 gamma peptide” (priority 2014, dated 2018).
# Like-named read-outs stand apart in the source and are kept apart here. No end group written: not given here.
# Experiments:
# [1] = test system: patients with type 1 diabetes; conditions: for study subjects / patients dropping out of the clinical trials due to local side-effects: man, local injection site reactions (pain, bruising, infection, skin site reactions)
# [2] = test system: human extra-islet pancreatic exocrine tissue; conditions: in vitro; exocrine ductal tissue separated from endocrine beta cells
# [3] = test system: new small islets developing from non-endocrine tissue
sequence,measurement,setting,value
"IGLHDPSHGTLPNGS [hamster Reg3 gamma peptide, native 15 amino acid hamster Reg3 gamma peptide]",increase in endogenous insulin production,"[1]; by day 54, type 1 patients with no baseline c-peptide",27%
same,study subjects / patients dropping out of the clinical trials due to local side-effects,[1]; listed as 15-amino acid hamster Reg3 gamma peptide,⅓
same,study subjects / patients dropping out of the clinical trials due to local side-effects,[1]; listed as 15 amino acid hamster Reg3gamma peptide,more than ⅓
same,study subjects / patients dropping out of the clinical trials due to local side-effects,[1]; listed as hamster Reg3 gamma 15 amino acid peptide,⅓
same,rise in stimulated c-peptide,[1]; type 1 patients with no detectable c-peptide at baseline,27%
same,insulin requirements,"[1]; type 1 patients, within 54 days of usage",significant reduction
same,transformation of exocrine ductal tissue,[2],transform into new beta cells
same,"levels of new islet markers (NGN3, NKX6.1, SOX9, INS)",[3]; five days after treatment,increased levels
same,increase in the volume of new small islets,[3]; islets developing from non-endocrine tissue,2 fold
